Measured values: article PMC10648875 (Antimicrobial Agents and Chemotherapy, 2023)
In brackets after ≈: the same amount, converted by molar mass. Where two headings read alike, the source gives them in different places.

Experiments:
IMP-1 = IMP-1 (Serratia marcescens, UniProt P52699); experiment: Ki of metallo-β-lactamase inhibition, purified enzyme; format: biochemical
Description: (§1) The majority of purified β-lactamase enzymes used in the study were either expressed and purified internally ([35]) or obtained from Emerald Biostructures (Bainbridge Island, WA, USA). L1 enzyme was purified as described in reference ([36]).
(§2) Enzymes were mixed with BLIs at concentrations varying from 160 to 0.0027 µM in 50-mM Na-phosphate pH7.0, 0.1-mg/mL bovide serum albumin (BSA) (buffer A; 20-µM ZnCl2 was also added for all metalloenzymes) and incubated for 10 minutes at 37°C. Nitrocefin (50 µM) (10 µM for SHV-12) or 100 µM of imipenem (prewarmed at 37°C for 10 minutes) was added, and substrate cleavage profiles were recorded at 37°C at 490 nm every 10 seconds for 10 minutes or at 294 nm every 30 seconds for 1 hour for nitrocefin and imipenem, respectively. […] Ki app values (Ki for metalloenzymes) were calculated by the method of Waley ([37]).

VIM-1 = VIM-1 (Pseudomonas aeruginosa, UniProt A0A0F7KYQ8); experiment: as above; format: biochemical; conditions: 10-minute preincubation; nitrocefin substrate
Description: as §1, §2

CTX-M-15 = CTX-M-15 (Escherichia coli, UniProt Q9EXV5); experiment: Ki app of β-lactamase inhibition, purified enzyme; format: biochemical; conditions: 10-minute preincubation; nitrocefin substrate
Description: as §1, §2

P99 = P99 (Enterobacter cloacae, UniProt P05364); experiment: Ki app of β-lactamase inhibition, purified enzyme; format: biochemical
Description: as §1, §2

SHV-12 = SHV-12 (Klebsiella pneumoniae, UniProt P0AD64, E235K/G234S/L31Q); experiment: Ki app of β-lactamase inhibition, purified enzyme; format: biochemical
Description: as §1, §2

CTX-M-14 = CTX-M-14 (Escherichia coli, UniProt Q9L5C7); experiment: Ki app of β-lactamase inhibition, purified enzyme; format: biochemical; conditions: 10-minute preincubation; nitrocefin substrate
Description: as §1, §2

NDM-1 = NDM-1 (Klebsiella pneumoniae, UniProt C7C422); experiment: biochemical
Description: as §1, §2

[1] = test system: Klebsiella pneumoniae ATCC 700603 (KPM2881), SHV-18; experiment: MIC, reference strain; format: cell-based; conditions: Klebsiella pneumoniae, ATCC700603; SHV-18; BLI at the fixed concentration in brackets; read-out: MIC
Description: (§3) Other BL/BLI combinations were tested at their recommended BLI concentrations. MIC values for the partner antibiotics and BLIs alone were also determined (Table 2; Table S1). All investigational and marketed BLIs enhanced the potency of antibiotics according to their spectrum of inhibition. MIC values against CLSI-approved QC strains were within acceptable ranges for drugs and combinations tested (Table 3).
(§4) Isolates were tested for antimicrobial susceptibility using the broth microdilution methodology per CLSI M07 (2018) guidelines ([40]). JMI Laboratories produced frozen-form 96-well panels with cation-adjusted Mueller-Hinton broth as the testing medium. Current CLSI quality assurance practices were followed when performing the susceptibility tests. MIC values were validated by concurrently testing the following CLSI-recommended ([27]) QC reference strains: E. coli NCTC 13353 (CTX-M-15), Klebsiella pneumoniae ATCC BAA-2814 (KPC-3), Klebsiella pneumoniae ATCC BAA-1705 (KPC-2), and K. pneumoniae ATCC 700603 (SHV-18). The inoculum density during susceptibility testing was monitored by bacterial colony counts. Where applicable, QC ranges for tested reference strains were those approved or published by the CLSI ([27]).

[2] = test system: E. coli CDC 0069 (EC1106), NDM-1; experiment: MIC, reference strain; format: cell-based; conditions: Escherichia coli, BLI at the fixed concentration in brackets, read-out: MIC
Description: as §3, §4

[3] = test system: K. pneumoniae CDC 0135 (KP1291), VIM-1; experiment: MIC, reference strain; format: cell-based; conditions: Klebsiella pneumoniae, BLI at the fixed concentration in brackets, read-out: MIC
Description: as §3, §4

[4] = test system: K. pneumoniae ATCC BAA-2814 (KP1074), KPC-3; experiment: MIC, reference strain; format: cell-based; conditions: Klebsiella pneumoniae, ATCCBAA2814; KPC-3; BLI at the fixed concentration in brackets; read-out: MIC
Description: as §3, §4

[5] = test system: K. pneumoniae ATCC BAA-1705 (KPM1123), KPC-2; experiment: MIC, reference strain; format: cell-based; conditions: Klebsiella pneumoniae, ATCCBAA1705; KPC-2; BLI at the fixed concentration in brackets; read-out: MIC
Description: as §3, §4

[6] = test system: Escherichia coli NCTC 13353 (ECM7514), CTX-M-15; experiment: MIC, reference strain; format: cell-based; conditions: Escherichia coli, NCTC13353
Description: as §3
as §4, with “([27]). Meropenem was purchased from Carbosynth; ceftolozane was synthesized at Acme Bioscience, Palo Alto, CA, USA; all other antibiotics were from Sigma Aldrich. Xeruborbactam was synthesized at Qpex Biopharma, San Diego, CA, USA. Avibactam was purchased from eNovation, Chemicals LLC, Bridgewater, NJ, USA. Vaborbactam was synthesized at The Medicines Company, San Diego, CA. Relebactam, taniborbactam, and […] were synthesized at Acme Bioscience.” for “([27]).”

[7] = test system: P. aeruginosa BAA-3197 (PA5257), KPC-2; experiment: MIC, reference strain; format: cell-based; conditions: Pseudomonas aeruginosa, BAA3197; KPC-2; BLI at the fixed concentration in brackets; read-out: MIC
[8] = test system: ESBL-producing Enterobacterales; experiment: organism not typed; format: cell-based; conditions: ESBL (N = 521); xeruborbactam and vaborbactam fixed 8 mg/L, all other BLIs 4 mg/L
[9] = test system: carbapenem-resistant Enterobacterales (subset of 507 isolates); experiment: organism not typed; format: cell-based; conditions: xeruborbactam and vaborbactam fixed 8 mg/L, all other BLIs 4 mg/L
[10] = test system: ESBL-producing and carbapenem-resistant Enterobacterales (All, N = 1028); experiment: organism not typed; format: cell-based; conditions: All (N = 1028); xeruborbactam and vaborbactam fixed 8 mg/L, all other BLIs 4 mg/L
OXA-23 = OXA-23 (Acinetobacter baumannii, UniProt Q9L4P2); experiment: Ki app of β-lactamase inhibition, purified enzyme; format: biochemical; conditions: 10-minute preincubation; nitrocefin substrate
Description: as §1, §2

KPC-2 = KPC-2 (Klebsiella pneumoniae, UniProt Q9F663); experiment: Ki app of β-lactamase inhibition, purified enzyme; format: biochemical; conditions: 10-minute preincubation; nitrocefin substrate
Description: as §1, §2

OXA-48 = OXA-48 (Klebsiella pneumoniae, UniProt Q6XEC0); experiment: Ki app of β-lactamase inhibition, purified enzyme; format: biochemical, Enterobacterales; conditions: 10-minute preincubation; nitrocefin substrate
Description: as §1, §2

[11] = CTX-M-15, BLI at the fixed concentration in brackets, read-out: MIC
[12] = 10-minute preincubation, nitrocefin substrate, read-out: Ki app

Chain of CTX-M-15 (Q9EXV5 entry or part of it): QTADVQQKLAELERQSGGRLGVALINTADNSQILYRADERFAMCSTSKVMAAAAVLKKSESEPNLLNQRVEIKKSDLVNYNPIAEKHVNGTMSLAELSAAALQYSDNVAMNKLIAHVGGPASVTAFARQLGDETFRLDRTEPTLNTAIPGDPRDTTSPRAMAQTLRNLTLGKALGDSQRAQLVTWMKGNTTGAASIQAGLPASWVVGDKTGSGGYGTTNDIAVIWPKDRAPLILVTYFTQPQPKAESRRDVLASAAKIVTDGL
Chain of CTX-M-14 (Q9L5C7 entry or part of it): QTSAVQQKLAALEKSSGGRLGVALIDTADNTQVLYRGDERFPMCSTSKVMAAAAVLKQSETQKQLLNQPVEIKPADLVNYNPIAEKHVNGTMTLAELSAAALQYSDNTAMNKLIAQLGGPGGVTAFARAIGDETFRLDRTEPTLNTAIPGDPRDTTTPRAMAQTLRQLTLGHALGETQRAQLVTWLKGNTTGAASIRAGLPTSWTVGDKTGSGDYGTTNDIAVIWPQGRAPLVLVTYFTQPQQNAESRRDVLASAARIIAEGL
Chain of NDM-1 (C7C422 29-270 limits assumed): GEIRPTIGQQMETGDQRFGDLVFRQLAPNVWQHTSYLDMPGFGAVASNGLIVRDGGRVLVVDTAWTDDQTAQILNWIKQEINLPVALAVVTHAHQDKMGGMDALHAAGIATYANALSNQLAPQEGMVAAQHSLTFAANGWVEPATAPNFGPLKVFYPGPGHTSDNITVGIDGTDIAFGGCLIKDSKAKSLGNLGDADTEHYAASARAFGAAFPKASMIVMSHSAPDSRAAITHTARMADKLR
Chain of SHV-12 (P0AD64 22-286 L31Q/G234S/E235K): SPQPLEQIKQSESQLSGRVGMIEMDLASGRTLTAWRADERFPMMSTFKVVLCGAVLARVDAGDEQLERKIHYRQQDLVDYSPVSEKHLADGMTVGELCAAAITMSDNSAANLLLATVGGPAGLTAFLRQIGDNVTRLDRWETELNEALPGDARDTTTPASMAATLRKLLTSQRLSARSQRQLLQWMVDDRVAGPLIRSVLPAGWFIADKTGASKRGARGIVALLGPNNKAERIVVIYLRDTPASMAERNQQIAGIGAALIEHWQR
Chain of IMP-1 (P52699 19-246 limits assumed): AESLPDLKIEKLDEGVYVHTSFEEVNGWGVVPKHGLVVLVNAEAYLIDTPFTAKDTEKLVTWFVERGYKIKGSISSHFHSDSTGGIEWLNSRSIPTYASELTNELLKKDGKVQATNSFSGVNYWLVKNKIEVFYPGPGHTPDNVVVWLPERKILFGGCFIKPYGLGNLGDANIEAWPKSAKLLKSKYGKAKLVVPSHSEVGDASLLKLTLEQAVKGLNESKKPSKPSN
Chain of P99 (P05364 21-381): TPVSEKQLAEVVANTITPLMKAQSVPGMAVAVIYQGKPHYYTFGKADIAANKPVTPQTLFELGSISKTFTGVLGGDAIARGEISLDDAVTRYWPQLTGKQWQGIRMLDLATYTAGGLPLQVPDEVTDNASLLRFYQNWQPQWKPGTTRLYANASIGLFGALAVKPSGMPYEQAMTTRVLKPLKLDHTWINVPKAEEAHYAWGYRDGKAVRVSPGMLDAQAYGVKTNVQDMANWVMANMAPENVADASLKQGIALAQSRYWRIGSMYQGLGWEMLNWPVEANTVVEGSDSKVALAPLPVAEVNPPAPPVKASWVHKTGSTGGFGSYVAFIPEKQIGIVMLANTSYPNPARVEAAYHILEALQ
Chain of KPC-2 (Q9F663 25-293 limits assumed): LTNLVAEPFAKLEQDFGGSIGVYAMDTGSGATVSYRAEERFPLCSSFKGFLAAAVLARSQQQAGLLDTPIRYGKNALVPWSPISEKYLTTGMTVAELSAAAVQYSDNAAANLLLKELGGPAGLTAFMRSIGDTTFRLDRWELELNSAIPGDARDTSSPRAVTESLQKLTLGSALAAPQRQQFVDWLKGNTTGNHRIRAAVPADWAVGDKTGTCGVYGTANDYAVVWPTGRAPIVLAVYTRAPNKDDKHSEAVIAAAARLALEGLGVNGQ
Chain of OXA-23 (Q9L4P2 18-273): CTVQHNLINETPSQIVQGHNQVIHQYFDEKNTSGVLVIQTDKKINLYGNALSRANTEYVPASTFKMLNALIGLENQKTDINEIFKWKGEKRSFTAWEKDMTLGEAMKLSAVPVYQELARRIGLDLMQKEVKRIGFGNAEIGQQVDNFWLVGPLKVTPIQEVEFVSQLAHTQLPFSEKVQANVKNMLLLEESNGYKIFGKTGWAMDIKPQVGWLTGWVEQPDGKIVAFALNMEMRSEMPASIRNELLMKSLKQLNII
Chain of OXA-48 (Q6XEC0 23-265 limits assumed): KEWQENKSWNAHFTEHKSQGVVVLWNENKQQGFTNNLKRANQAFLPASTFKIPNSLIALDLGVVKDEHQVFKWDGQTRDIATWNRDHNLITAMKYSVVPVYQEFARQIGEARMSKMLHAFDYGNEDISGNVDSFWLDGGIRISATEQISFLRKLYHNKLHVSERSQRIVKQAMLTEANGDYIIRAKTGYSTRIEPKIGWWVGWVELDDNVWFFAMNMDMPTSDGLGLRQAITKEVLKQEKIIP

SMILES | Ki (IMP-1) | Ki (VIM-1) | Ki (CTX-M-15) | Ki (CTX-M-14) | Ki (NDM-1) | MIC [1] | MIC [2] | MIC [3] | MIC [4] | MIC [5] | MIC [6, 11] | MIC [7] | further results
NC(=O)[C@@H]1CC[C@@H]2CN1C(=O)N2OS(=O)(=O)O [Avibactam, avibactam] | > 160000 nM | > 160000 nM | 0.18 ± 0.08 nM | 0.41 ± 0.13 nM | > 160000 nM | 32 µg/mL | 8 µg/mL | > 64 µg/mL | 64 µg/mL | 16 µg/mL | 16 µg/mL | > 64 µg/mL | Ki (P99; Ki app): 10 ± 2 nM; Ki (SHV-12): 0.24 ± 0.07 nM
CC(C)(O/N=C(\C(=O)N[C@@H]1C(=O)N2C(C(=O)[O-])=C(C[n+]3ccccc3)CS[C@H]12)c1csc(N)n1)C(=O)O [CAZ, ceftazidime] |  |  |  |  |  | 16 µg/mL | > 64 µg/mL | > 64 µg/mL | > 64 µg/mL | 64 µg/mL | 64 µg/mL | > 64 µg/mL | 
CO/N=C(\C(=O)N[C@@H]1C(=O)N2C(C(=O)O)=C(CSc3nc(=O)c(O)nn3C)CS[C@H]12)c1csc(N)n1 [CRO] |  |  |  |  |  |  |  |  |  |  |  |  | MIC50 [8]: >32 µg/mL; MIC90 [8]: >32 µg/mL; MIC50 ([9]; CRE (N = 507)): >32 µg/mL; MIC90 ([9]; CRE (N = 507)): >32 µg/mL; MIC50 ([9]; KPC (N = 193)): >32 µg/mL; MIC90 ([9]; KPC (N = 193)): >32 µg/mL; MIC50 ([9]; MBL (N = 168)): >32 µg/mL; MIC90 ([9]; MBL (N = 168)): >32 µg/mL; MIC50 ([9]; Non-CP CRE (N = 50)): >32 µg/mL; MIC90 ([9]; Non-CP CRE (N = 50)): >32 µg/mL; MIC50 ([9]; OXA-48-like (N = 96)): >32 µg/mL; MIC90 ([9]; OXA-48-like (N = 96)): >32 µg/mL; MIC50 [10]: >32 µg/mL; MIC90 [10]: >32 µg/mL
CC1=C[C@@H]2CN(C(=O)N2OS(=O)(=O)O)[C@@H]1C(N)=O [Durlobactam, durlobactam] | > 160000 nM | > 160000 nM | 0.21 ± 0.12 nM | 0.37 ± 0.16 nM | > 160000 nM |  |  |  |  |  |  |  | Ki (OXA-23): 94 ± 32 nM; Ki (P99; [12]): 0.17 ± 0.08 nM; Ki (KPC-2): 1.7 ± 0.4 nM; Ki (OXA-48): 0.72 ± 0.27 nM
C[C@@H](O)[C@H]1C(=O)N2C(C(=O)O)=C(S[C@@H]3CN[C@H](C(=O)Nc4cccc(C(=O)O)c4)C3)[C@H](C)[C@H]12 [ETP] |  |  |  |  |  |  |  |  |  |  |  |  | MIC50 [8]: 0.06 µg/mL; MIC90 [8]: 0.5 µg/mL; MIC50 ([9]; CRE (N = 507)): >32 µg/mL; MIC90 ([9]; CRE (N = 507)): >32 µg/mL; MIC50 ([9]; KPC (N = 193)): >32 µg/mL; MIC90 ([9]; KPC (N = 193)): >32 µg/mL; MIC50 ([9]; MBL (N = 168)): >32 µg/mL; MIC90 ([9]; MBL (N = 168)): >32 µg/mL; MIC50 ([9]; Non-CP CRE (N = 50)): >32 µg/mL; MIC90 ([9]; Non-CP CRE (N = 50)): >32 µg/mL; MIC50 ([9]; OXA-48-like (N = 96)): >32 µg/mL; MIC90 ([9]; OXA-48-like (N = 96)): >32 µg/mL; MIC50 [10]: 4 µg/mL; MIC90 [10]: >32 µg/mL
C[C@@H](O)[C@H]1C(=O)N2C(C(=O)O)=C(SCCN=CN)C[C@H]12 [IMP, imipenem] |  |  |  |  |  | 0.06 µg/mL | 16 µg/mL | 8 µg/mL | 64 µg/mL | 8 µg/mL |  | > 64 µg/mL | MIC [6]: 0.125 µg/mL
O=C(NC1CCNCC1)[C@@H]1CC[C@@H]2CN1C(=O)N2OS(=O)(=O)O [Relebactam, relebactam] | > 160000 nM | > 160000 nM | 24 ± 1 nM | 10 ± 3 nM | > 160000 nM | > 64 µg/mL | > 64 µg/mL | > 64 µg/mL | > 64 µg/mL | > 64 µg/mL | > 64 µg/mL | > 64 µg/mL | Ki (P99; [12]): 14 ± 2 nM; Ki (SHV-12): 36 ± 6 nM
Cn1c(N)c(NC(=O)NCCN)c[n+]1CC1=C(C(=O)O)N2C(=O)[C@@H](NC(=O)/C(=N\OC(C)(C)C(=O)[O-])c3nsc(N)n3)[C@H]2SC1 [TOL, ceftolozane] |  |  |  |  |  | 8 µg/mL | > 64 µg/mL | > 64 µg/mL | > 64 µg/mL | 64 µg/mL | > 64 µg/mL | 32 µg/mL (≈ 48 µM) | 
O=C(O)C[C@@H]1CC[C@H](NC(=O)Cc2cccs2)B(O)O1 [Vaborbactam, vaborbactam] | > 160000 nM |  |  |  |  | > 64 µg/mL | > 64 µg/mL | > 64 µg/mL | > 64 µg/mL | > 64 µg/mL | > 64 µg/mL | > 64 µg/mL | Ki (SHV-12; [12]): 21 ± 4 nM
